# Source: article PMC10154249, “Unique progerin C-terminal peptide ameliorates Hutchinson–Gilford progeria syndrome phenotype by rescuing BUBR1” (Nature Aging, 2023)
# Numbered stars: 1 amine (or outer) side, 2 acyl side, 3 side chain; on linkers, the order of the positions; unused ones are H or OH. Bridge positions count the residues as written; N and C are the ends. Square brackets hold non-standard residues; d marks the D form. Peptide text beside a SMILES is read from it. I, II: the chains in the order shown. Actinocin(9to1) = Cc1c2oc3c(C)ccc(C(=O)[*:1])c3nc-2c(C(=O)[*:2])c(N)c1=O; NMeV = CN[C@H](C(=O)O)C(C)C; Sar = CNCC(=O)O
# What was measured:
# HGADFN003 cells [1] = test: SA-β-gal staining of HGADFN003 cells; type: cell-based, human; settings: Fig.1m, HGADFN003, Vector 65, 68, 69, 65, P<0.0001
# Procedure: (§1) SA-β-gal staining was performed as previously described. Cells were fixed in 0.5% glutaraldehyde for 15 min at room temperature, washed three times with PBS (pH 6.0) containing 1 mM MgCl2 and exposed overnight 37 °C to containing 1 mg ml^–1 5-bromo-4-chloro-3-indolyl-β-D-galactopyranoside (MCE, catalog no. HY-15934), 0.12 mM potassium ferrocyanide (Sigma, catalog no. P3289), 0.12 mM potassium ferricyanide (Sigma, catalog no. P8131) and 1 mM MgCl2 PBS buffer (pH 6.0). Cells were washed three times with H2O and observed under a microscope (OLYMPUS CKX53). SA-β-gal positive cells were quantified by investigators who were blinded to the identity of the analyzed cell.
# HGADFN003 cells [2] = test: Ki67 immunofluorescence of HGADFN003 cells; type: cell-based, human; settings: Fig.1o, HGADFN003, Vector 45, 38, 49, P=0.0031
# Procedure: (§2) Immunofluorescence was performed as described previously. Cells were plated on cover slips in 12-well plates, left overnight before the treatment. Cells were fixed in 1% formaldehyde in culture medium for 10 min at 37 °C and permeabilized with 0.2% Triton X-100 in PBS for 10 min at room temperature. Cells were washed twice in PBS and blocked for 1 h with 5% BSA in PBS and then incubated with primary antibodies at 4 °C overnight, washed three times in PBS and incubated with secondary antibodies for 1 h at room temperature. Cell nuclei were counterstained with a 500 nM concentration of 4,6-diamidino-2-phenylindole (DAPI) (Sigma). Images were acquired by a fluorescence microscope (OLYMPUS FV-1000, Carl Zeiss LSM880 or Leica DMi8) and analyzed with software NIS-Elements AR v.5.0.1 (Nikon), FLUOVIEW v.4.2b (OLYMPUS), ZEN v.2.3 SP1 (Carl Zeiss) and Leica Application Suite X v.3.6.0.24 (Leica). Cells were quantified by investigators who were blinded to the identity of the analyzed cell.
# IMR90 cells [3] = test: Ki67 immunofluorescence of IMR90 cells; type: cell-based, human; settings: Fig.1k, IMR90
# Procedure: as §2
# IMR90 cells [4] = test: SA-β-gal staining of IMR90 cells (progerin, BUBR1, shBUBR1); type: cell-based, human; settings: Fig.1i
# Procedure: as §1
# [5] = system: IMR90 and HGADFN003 cells; test: Metaphase chromosome spread assay, aneuploid cells; type: cell-based, human
# Procedure: For the metaphase chromosome spread assay, 1.5 × 10^6 cells were seeded in a 6 cm dish and incubated for 24 h with fresh medium. Then, colchicine was added to a final concentration of 0.2 μg ml^–1 and the cells were incubated at 37 °C for 2 h. After digestion, we collected and rinsed the cells with PBS. The cells were centrifuged at 160g for 10 min. Then, 1 M KCl was added to a final concentration of 0.075 mol l^–1 and the samples were incubated at 37 °C for 20 min. The cells were centrifuged, and the supernatant aspirated. The pellet was resuspended, and 1 ml methanol:glacial acetic acid (3:1) solution was added. The sample was rested at room temperature for 10 min. Then, the cells were centrifuged at 160g for 10 min. The supernatant was aspirated, and the pellet resuspended in 1 ml fixative for 30 min. The cells were centrifuged and the pellet was suspended in 1 ml fixative again for 30 min. The cells were centrifuged at 160g for 10 min and the supernatant aspirated. The pellet was then resuspended in a small volume of fixative (typically less than 500 μl) until the cell suspension appeared lightly milky. A small quantity of the cell suspension was held vertically in a pipette with the end about 10 cm above the slide. A single drop was released from this height onto the slide and allowed to air dry. The cells were then incubated with 500 nM of DAPI (Invitrogen) for 10 min. Slides were examined with an Olympus BX53 fluorescence microscope and the images were captured by using the Olympus IPP v.7.0 software. Aneuploid cells were quantified by investigators who were blinded to the identity of the analyzed cell.
# BUBR1 mRNA = BUBR1 mRNA stability assay with Actinomycin D; type: cell-based, human; settings: Fig. 4h, +Act D (shCtrl+Act D or shPTBP1#1+Act D), shCtrl = 1
# Procedure: RNA preparation was performed as described. Total RNA was extracted using Trizol reagent (TaKaRa) following the manufacturer’s instructions. cDNA was generated with M-MLV reverse transcriptase (Promega, catalog no. M170B). Reverse transcription with PCR (RT-PCR) was performed with SYBR Green Real-Time PCR Master Mix (TaKaRa). RT-PCR was carried out on a QuantStudio 3 Real-Time-PCR Instrument (ABI). Data were analyzed and further processed in QuantStuido Design and Analysis Software and GraphPad Prism v.7. Fold change in gene expression over control samples was calculated using the 2^–ΔΔCt method, where β-actin Ct values were used as an internal control. The primer sequences for PCR, synthesized by Comate Bioscience, were as follows: […]
# PTBP1–BUBR1 mRNA 3′-UTR = test: RIP assay of PTBP1 and BUBR1 mRNA 3′-UTR in HEK-293T cells; type: cell-based
# Procedure: RIP and RNA pulldown assays were performed as previously described. The RIP experiment was carried out using the EZ-Magna RIP Kit (Millipore, catalog no. 17-701). The coprecipitated RNAs were extracted through Trizol reagent and detected by RT-PCR. The primer sequences for PCR, synthesized by Comate Bioscience, were as follows:
# BUBR1-3′UTR_fwd (5′-[…]-3′) and BUBR1-3′UTR_rev (5′- […]-3′).
# BUBR1 mRNA 3ʹ-UTR = test: Luciferase activity assay of BUBR1 mRNA 3ʹ-UTR in HEK-293T cells; type: cell-based; settings: Fig. 4k, Vector = 1, P=0.0012
# Procedure: The experiments were performed as described previously. The BUBR1 (–1,200 to +100) promoter or the DNA fragment of BUBR1 mRNA 3′-UTR was inserted into the pGL4.20 vector. Cells were plated in 24-well plates. After 24 h, cells were cotransfected with 200 ng of the indicated firefly luciferase reporter plasmid and 50 ng of Renilla luciferase normalization control plasmid using PEI. At 48 h after transfection, cell lysates were collected to measure luciferase activity using the Dual-Luciferase Reporter Assay System (Promega, catalog no. E1910) according to the manufacturer’s instructions. Luciferase reporter assay was carried out on an TD-20/20 Turner Designs luminometer, data were analyzed and further processed in Microsoft Excel and GraphPad Prism v.7.
# [6] = system: progerin–BUBR1 interaction; test: CoIP of progerin and BUBR1 in HEK-293T cells; type: cell-based; settings: HEK-293T co-transfected with truncated mutants and HA-progerin
# Procedure: Detailed descriptions of CoIP were described previously[55],[56]. Cells were harvested and washed three times in cold PBS, then lysed in CoIP buffer (25 mM Tris-HCl (pH 7.5), 150 mM KCl, 5 mM EDTA, and 0.5% NP-40) plus protease inhibitor cocktail tablet (Roche). Incubate on ice and shock lysates on the vortex shaker 15 times for 30 s each. Microcentrifuge in 12,000g for 15 min at 4 °C, collect the supernatant, and incubate with 3 μg primary antibodies with gentle shaking overnight at 4 °C, followed by adding 20–40 μl Pure Proteome Protein A/G Mix Magnetic Beads (Millipore, catalog no. […]02) for 3 h. Wash the beads three times with 1 ml CoIP buffer for 8 min each, resuspend in 50 μl 1× loading buffer, and incubate at 100 °C for 8 min. Throw beads away and analyze by immunoblotting.
compound,measurement,setting,value
BUBR1,Relative percentage of SA-β-gal positive cells,HGADFN003 cells [1]; replicate 1,48%
same,Relative percentage of SA-β-gal positive cells,HGADFN003 cells [1]; replicate 2,49%
same,Relative percentage of SA-β-gal positive cells,HGADFN003 cells [1]; replicate 3,50%
same,Relative percentage of SA-β-gal positive cells,HGADFN003 cells [1]; replicate 4,42%
same,Relative percentage of Ki67 positive cells,HGADFN003 cells [2]; replicate 1,78%
same,Relative percentage of Ki67 positive cells,HGADFN003 cells [2]; replicate 2,74%
same,Relative percentage of Ki67 positive cells,HGADFN003 cells [2]; replicate 3,67%
same,Relative percentage of Ki67 positive cells,"IMR90 cells [3]; Vector 67, 75, 60, P vs Vector: BUBR1 0.803, progerin 0.0018, replicate 1",64%
same,Relative percentage of Ki67 positive cells,"IMR90 cells [3]; Vector 67, 75, 60, P vs Vector: BUBR1 0.803, progerin 0.0018, replicate 2",78%
same,Relative percentage of Ki67 positive cells,"IMR90 cells [3]; Vector 67, 75, 60, P vs Vector: BUBR1 0.803, progerin 0.0018, replicate 3",65%
same,Relative percentage of Ki67 positive cells,"IMR90 cells [3]; progerin+BUBR1, P=0.0042 vs progerin, replicate 1",48%
same,Relative percentage of Ki67 positive cells,"IMR90 cells [3]; progerin+BUBR1, P=0.0042 vs progerin, replicate 2",51%
same,Relative percentage of Ki67 positive cells,"IMR90 cells [3]; progerin+BUBR1, P=0.0042 vs progerin, replicate 3",45%
same,Relative percentage of SA-β-gal positive cells,"IMR90 cells [4]; Vector 2, 1, 2, P vs Vector: BUBR1 0.2302, progerin 0.0003, replicate 1",3%
same,Relative percentage of SA-β-gal positive cells,"IMR90 cells [4]; Vector 2, 1, 2, P vs Vector: BUBR1 0.2302, progerin 0.0003, replicate 2",2%
same,Relative percentage of SA-β-gal positive cells,"IMR90 cells [4]; Vector 2, 1, 2, P vs Vector: BUBR1 0.2302, progerin 0.0003, replicate 3",2%
same,Relative percentage of SA-β-gal positive cells,"IMR90 cells [4]; progerin+BUBR1, P=0.0026 vs progerin, replicate 1",15%
same,Relative percentage of SA-β-gal positive cells,"IMR90 cells [4]; progerin+BUBR1, P=0.0026 vs progerin, replicate 2",18%
same,Relative percentage of SA-β-gal positive cells,"IMR90 cells [4]; progerin+BUBR1, P=0.0026 vs progerin, replicate 3",20%
same,Relative percentage of aneuploid cells,"[5]; Fig.1p, IMR90, Vector 6, 5, 8, replicate 1",5%
same,Relative percentage of aneuploid cells,"[5]; Fig.1p, IMR90, Vector 6, 5, 8, replicate 2",5%
same,Relative percentage of aneuploid cells,"[5]; Fig.1p, IMR90, Vector 6, 5, 8, replicate 3",7%
same,Relative percentage of aneuploid cells,"[5]; Fig.1p, IMR90, progerin+BUBR1, replicate 1",25%
same,Relative percentage of aneuploid cells,"[5]; Fig.1p, IMR90, progerin+BUBR1, replicate 2",17%
same,Relative percentage of aneuploid cells,"[5]; Fig.1p, IMR90, progerin+BUBR1, replicate 3",22%
same,Relative percentage of aneuploid cells,"[5]; Fig.1q, HGADFN003, Vector 29, 35, 32, P=0.0053, replicate 1",21%
same,Relative percentage of aneuploid cells,"[5]; Fig.1q, HGADFN003, Vector 29, 35, 32, P=0.0053, replicate 2",17%
same,Relative percentage of aneuploid cells,"[5]; Fig.1q, HGADFN003, Vector 29, 35, 32, P=0.0053, replicate 3",14%
"Cc1c2oc3c(C)ccc(C(=O)N[C@@H]4C(=O)N[C@H](C(C)C)C(=O)N5CCC[C@H]5C(=O)N(C)CC(=O)N(C)[C@@H](C(C)C)C(=O)O[C@@H]4C)c3nc-2c(C(=O)N[C@@H]2C(=O)N[C@H](C(C)C)C(=O)N3CCC[C@H]3C(=O)N(C)CC(=O)N(C)[C@@H](C(C)C)C(=O)O[C@@H]2C)c(N)c1=O [ActD] (I: T[dV]P[Sar][NMeV] / II: T[dV]P[Sar][NMeV]; ester I:1-I:C, II:1-II:C; linker I:N-II:N via Actinocin(9to1))",BUBR1 relative (to β-actin) mRNA level (2-ΔΔCt),BUBR1 mRNA; replicate 1,0.6794
same,BUBR1 relative (to β-actin) mRNA level (2-ΔΔCt),BUBR1 mRNA; replicate 2,0.7373
same,BUBR1 relative (to β-actin) mRNA level (2-ΔΔCt),BUBR1 mRNA; replicate 3,0.615
PTBP1,PTBP1 enrichment on BUBR1-3'UTR (2-ΔΔCt),"PTBP1–BUBR1 mRNA 3′-UTR; Fig. 4i, IgG = 1, P=0.0086, replicate 1",21.8107
same,PTBP1 enrichment on BUBR1-3'UTR (2-ΔΔCt),"PTBP1–BUBR1 mRNA 3′-UTR; Fig. 4i, IgG = 1, P=0.0086, replicate 2",40.6928
same,PTBP1 enrichment on BUBR1-3'UTR (2-ΔΔCt),"PTBP1–BUBR1 mRNA 3′-UTR; Fig. 4i, IgG = 1, P=0.0086, replicate 3",24.8579
same,PTBP1 enrichment on BUBR1-3'UTR (2-ΔΔCt),"PTBP1–BUBR1 mRNA 3′-UTR; Fig. 4n, PTBP1, Vector = 1, P<0.0001 vs Vector, replicate 1",12.7685
same,PTBP1 enrichment on BUBR1-3'UTR (2-ΔΔCt),"PTBP1–BUBR1 mRNA 3′-UTR; Fig. 4n, PTBP1, Vector = 1, P<0.0001 vs Vector, replicate 2",13.1604
same,PTBP1 enrichment on BUBR1-3'UTR (2-ΔΔCt),"PTBP1–BUBR1 mRNA 3′-UTR; Fig. 4n, PTBP1, Vector = 1, P<0.0001 vs Vector, replicate 3",13.6473
same,Relative luciferase activity of BUBR1 3'UTR (PTBP1/Vector),BUBR1 mRNA 3ʹ-UTR; replicate 1,3.3
same,Relative luciferase activity of BUBR1 3'UTR (PTBP1/Vector),BUBR1 mRNA 3ʹ-UTR; replicate 2,4
same,Relative luciferase activity of BUBR1 3'UTR (PTBP1/Vector),BUBR1 mRNA 3ʹ-UTR; replicate 3,3
"progerin-C36: truncated progerin-C, aa residues 579–614, used for the design of UPCP (YNLRSRTVLCGTCGQPADKASASGSGAQSPQNCSIM)",block of progerin–BUBR1 binding by truncated progerin-C,[6],could block the binding of progerin and BUBR1
